The test deals with MV-4-11 cells. The test can be described thus: Gene expression microarray analysis (Affymetrix PrimeView) and GSEA. Format: cell-based, human. Details: RFU PODN (11730768_x_at) / Fold change /veh PODN (11730768_x_at) / RFU LINC00158 (11744669_a_at) / Fold change /veh LINC00158 (11744669_a_at) / RFU DUSP10 (11751237_a_at) / Fold change /veh DUSP10 (11751237_a_at) / RFU ID3 (11757404_x_at) / Fold change /veh ID3 (11757404_x_at) / RFU PLEKHG5 (11737974_s_at) / Fold change /veh PLEKHG5 (11737974_s_at) / RFU LRRC4B (11730491_at) / Fold change /veh LRRC4B (11730491_at) / RFU GIMAP4 (11747438_a_at) / Fold change /veh GIMAP4 (11747438_a_at) / RFU KRT8 (11758183_x_at) / Fold change /veh KRT8 (11758183_x_at) / RFU CNN1 (11734310_a_at) / Fold change /veh CNN1 (11734310_a_at) / RFU VPS37D (11726825_at) / Fold change /veh VPS37D (11726825_at) / RFU C10orf10 (11716522_x_at) / Fold change /veh C10orf10 (11716522_x_at) / RFU KIR2DL2 /// KIR2DL4 /// KIR2DL5A /// KIR2DL5B /// KIR2DS1 /// KIR2DS2 /// KIR2DS3 /// KIR2DS4 /// KIR3DL3 /// KIR3DL3 /// KIR3DS1 (11738374_at) / Fold change /veh KIR2DL2 /// KIR2DL4 /// KIR2DL5A /// KIR2DL5B /// KIR2DS1 /// KIR2DS2 /// KIR2DS3 /// KIR2DS4 /// KIR3DL3 /// KIR3DL3 /// KIR3DS1 (11738374_at) / RFU C1QL1 (11718748_at) / Fold change /veh C1QL1 (11718748_at) / RFU TMPRSS4 (11747572_a_at) / Fold change /veh TMPRSS4 (11747572_a_at) / RFU HAMP (11756126_x_at) / Fold change /veh HAMP (11756126_x_at) / RFU RNFT2 (11725882_a_at) / Fold change /veh RNFT2 (11725882_a_at) / RFU NR4A2 (11747474_a_at) / Fold change /veh NR4A2 (11747474_a_at) / RFU ABCC12 (11746883_a_at) / Fold change /veh ABCC12 (11746883_a_at) / RFU TMEM136 (11760407_x_at) / Fold change /veh TMEM136 (11760407_x_at) / RFU CLDN22 /// WWC2 (11732394_at) / Fold change /veh CLDN22 /// WWC2 (11732394_at) / RFU HLA-DPB1 (11760878_x_at) / Fold change /veh HLA-DPB1 (11760878_x_at) / RFU SPINT1 (11716480_a_at) / Fold change /veh SPINT1 (11716480_a_at) / RFU GAP43 (11754022_s_at) / Fold change /veh GAP43 (11754022_s_at) / RFU A4GNT (11735810_at) / Fold change /veh A4GNT (11735810_at) / RFU PRB3 (11715151_x_at) / Fold change /veh PRB3 (11715151_x_at) / RFU TUBB4B (11761932_at) / Fold change /veh TUBB4B (11761932_at) / RFU CAPN14 (11732068_a_at) / Fold change /veh CAPN14 (11732068_a_at) / RFU TMCC2 (11721928_a_at) / Fold change /veh TMCC2 (11721928_a_at) / RFU IRGQ (11745062_a_at) / Fold change /veh IRGQ (11745062_a_at) / RFU FAM174B (11720279_a_at) / Fold change /veh FAM174B (11720279_a_at) / RFU TMPRSS4 (11748680_a_at) / Fold change /veh TMPRSS4 (11748680_a_at) / RFU FAM212B (11763350_a_at) / Fold change /veh FAM212B (11763350_a_at) / RFU PLEKHG5 (11743358_a_at) / Fold change /veh PLEKHG5 (11743358_a_at) / RFU ZSCAN30 (11745921_a_at) / Fold change /veh ZSCAN30 (11745921_a_at) / RFU CMKLR1 (11741424_a_at) / Fold change /veh CMKLR1 (11741424_a_at) / RFU LOC101060620 /// MAPK8IP1 (11723275_at) / Fold change /veh LOC101060620 /// MAPK8IP1 (11723275_at) / RFU SPTSSB (11747773_x_at) / Fold change /veh SPTSSB (11747773_x_at) / RFU PRSS12 (11739890_at) / Fold change /veh PRSS12 (11739890_at) / RFU BIN1 (11741810_x_at) / Fold change /veh BIN1 (11741810_x_at) / RFU WNT11 (11732464_a_at) / Fold change /veh WNT11 (11732464_a_at) / RFU C10orf10 (11716521_a_at) / Fold change /veh C10orf10 (11716521_a_at) / RFU C5orf56 (11738089_at) / Fold change /veh C5orf56 (11738089_at) / RFU CYB561 (11721691_x_at) / Fold change /veh CYB561 (11721691_x_at) / RFU ANKRD19P (11752326_a_at) / Fold change /veh ANKRD19P (11752326_a_at) / RFU OR2T12 /// OR2T33 /// OR2T8 (11738714_s_at) / Fold change /veh OR2T12 /// OR2T33 /// OR2T8 (11738714_s_at) / RFU VCAN (11748164_a_at) / Fold change /veh VCAN (11748164_a_at) / RFU JSRP1 (11732532_at) / Fold change /veh JSRP1 (11732532_at) / RFU KRTAP10-11 (11738290_x_at) / Fold change /veh KRTAP10-11 (11738290_x_at) / RFU MYO3A (11730013_a_at) / Fold change /veh MYO3A (11730013_a_at) / RFU EBF3 (11725865_a_at) / Fold change /veh EBF3 (11725865_a_at) / RFU CAMK2N1 (11719241_x_at) / Fold change /veh CAMK2N1 (11719241_x_at) / RFU C5orf56 (11738088_a_at) / Fold change /veh C5orf56 (11738088_a_at) / RFU OLFML3 (11715873_a_at) / Fold change /veh OLFML3 (11715873_a_at) / RFU LOC100653217 /// NTM (11731650_a_at) / Fold change /veh LOC100653217 /// NTM (11731650_a_at) / RFU MAPK11 (11762145_a_at) / Fold change /veh MAPK11 (11762145_a_at) / RFU FIZ1 (11724087_x_at) / Fold change /veh FIZ1 (11724087_x_at) / RFU OASL (11726364_x_at) / Fold change /veh OASL (11726364_x_at) / RFU SOX15 (11748057_x_at) / Fold change /veh SOX15 (11748057_x_at) / RFU CD79A (11719716_a_at) / Fold change /veh CD79A (11719716_a_at) / RFU HIST1H1D (11736915_at) / Fold change /veh HIST1H1D (11736915_at) / RFU CASKIN2 (11723855_a_at) / Fold change /veh CASKIN2 (11723855_a_at) / RFU LOC730098 (11760151_x_at) / Fold change /veh LOC730098 (11760151_x_at) / RFU OR4N2 (11742367_at) / Fold change /veh OR4N2 (11742367_at) / RFU PRRT2 (11749266_a_at) / Fold change /veh PRRT2 (11749266_a_at) / RFU SNX32 (11753110_a_at) / Fold change /veh SNX32 (11753110_a_at) / RFU CDHR5 (11726645_a_at) / Fold change /veh CDHR5 (11726645_a_at) / RFU RCAN1 (11760418_a_at) / Fold change /veh RCAN1 (11760418_a_at) / RFU FAM167A (11723789_a_at) / Fold change /veh FAM167A (11723789_a_at) / RFU FAM26E (11764081_at) / Fold change /veh FAM26E (11764081_at) / RFU ISYNA1 (11749810_s_at) / Fold change /veh ISYNA1 (11749810_s_at) / RFU ACY1 (11761880_at) / Fold change /veh ACY1 (11761880_at) / RFU 11764098_at / Fold change /veh 11764098_at / RFU SAMD14 (11745864_x_at) / Fold change /veh SAMD14 (11745864_x_at) / RFU NPB (11741838_a_at) / Fold change /veh NPB (11741838_a_at) / RFU TMPRSS6 (11731388_a_at) / Fold change /veh TMPRSS6 (11731388_a_at) / RFU KRTAP10-2 (11738614_at) / Fold change /veh KRTAP10-2 (11738614_at) / RFU ARHGAP8 /// PRR5-ARHGAP8 (11727945_x_at) / Fold change /veh ARHGAP8 /// PRR5-ARHGAP8 (11727945_x_at) / RFU KRTAP5-7 /// NADSYN1 (11734609_at) / Fold change /veh KRTAP5-7 /// NADSYN1 (11734609_at) / RFU RASL12 (11751679_a_at) / Fold change /veh RASL12 (11751679_a_at) / RFU CDKN2B (11736163_a_at) / Fold change /veh CDKN2B (11736163_a_at) / RFU PRF1 (11729649_at) / Fold change /veh PRF1 (11729649_at) / RFU, ZNF638 /// ZNF638-IT1 / Fold change vs veh, ZNF638 /// ZNF638-IT1 / RFU, PANK3 / Fold change vs veh, PANK3 / RFU, SH3YL1 / Fold change vs veh, SH3YL1 / RFU, ZEB2 / Fold change vs veh, ZEB2 / RFU, NRIP1 / Fold change vs veh, NRIP1 / RFU, PTTG1IP / Fold change vs veh, PTTG1IP / RFU, CAPN2 / Fold change vs veh, CAPN2 / RFU, MED14 / Fold change vs veh, MED14 / RFU, SNORA58 / Fold change vs veh, SNORA58 / RFU, C1orf63 / Fold change vs veh, C1orf63 / RFU, LRRFIP1 / Fold change vs veh, LRRFIP1 / RFU, NDUFAF7 / Fold change vs veh, NDUFAF7 / RFU, SLC12A2 / Fold change vs veh, SLC12A2 / RFU, IBTK / Fold change vs veh, IBTK / RFU, ESF1 / Fold change vs veh, ESF1 / Fold change vs veh, TMEM50B / RFU, TAOK1 / Fold change vs veh, TAOK1 / RFU, ACBD3 / Fold change vs veh, ACBD3 / RFU, TMA16 / Fold change vs veh, TMA16 / RFU, RWDD3 / Fold change vs veh, RWDD3 / RFU, BCAT1 / Fold change vs veh, BCAT1 / RFU, EDEM3 / Fold change vs veh, EDEM3 / RFU, TMEM33 / Fold change vs veh, TMEM33 / RFU, WDR75 / Fold change vs veh, WDR75 / RFU, AHCTF1 / Fold change vs veh, AHCTF1 / RFU, TFRC / Fold change vs veh, TFRC / RFU, ZDHHC17 / Fold change vs veh, ZDHHC17 / RFU, NOM1 / Fold change vs veh, NOM1 / RFU, ARL8B / Fold change vs veh, ARL8B / RFU, ZBTB11 / Fold change vs veh, ZBTB11 / RFU, TAMM41 / Fold change vs veh, TAMM41 / RFU, KIAA1704 /// LOC100996395 / Fold change vs veh, KIAA1704 /// LOC100996395 / RFU, ING1 / Fold change vs veh, ING1 / RFU, TRMT61B / Fold change vs veh, TRMT61B / RFU, FUBP3 / Fold change vs veh, FUBP3 / RFU, TP53 / Fold change vs veh, TP53 / RFU, TNKS2 / Fold change vs veh, TNKS2 / RFU, ZFP14 / Fold change vs veh, ZFP14 / RFU, ACTR2 / Fold change vs veh, ACTR2 / RFU, PPP3R1 / Fold change vs veh, PPP3R1 / RFU, PIK3R1 / Fold change vs veh, PIK3R1 / RFU, HNRNPA1 / Fold change vs veh, HNRNPA1 / RFU, RNF170 / Fold change vs veh, RNF170 / RFU, ZNF28 / Fold change vs veh, ZNF28 / RFU, RNGTT / Fold change vs veh, RNGTT / RFU, OGT / Fold change vs veh, OGT / RFU, BRD1 / Fold change vs veh, BRD1 / RFU, MARS / Fold change vs veh, MARS / RFU, ZNF655 / Fold change vs veh, ZNF655 / RFU, FAHD1 / Fold change vs veh, FAHD1 / RFU, BDP1 / Fold change vs veh, BDP1 / RFU, LRRCC1 / Fold change vs veh, LRRCC1 / RFU, ARID1A / Fold change vs veh, ARID1A / RFU, ZNF146 / Fold change vs veh, ZNF146 / RFU, ZNF330 / Fold change vs veh, ZNF330 / RFU, GPN3 / Fold change vs veh, GPN3 / RFU, C9orf123 / Fold change vs veh, C9orf123 / RFU, N4BP2L2 / Fold change vs veh, N4BP2L2 / RFU, ARFIP1 / Fold change vs veh, ARFIP1 / RFU, FAM179B / Fold change vs veh, FAM179B / RFU, BCL10 / Fold change vs veh, BCL10 / RFU, UHRF1BP1L / Fold change vs veh, UHRF1BP1L / RFU, BET1 / Fold change vs veh, BET1 / RFU, CNOT2 / Fold change vs veh, CNOT2 / RFU, ZNF268 / Fold change vs veh, ZNF268 / Fold change vs veh, ZNF507 / RFU, DGCR2 / Fold change vs veh, DGCR2 / RFU, WDSUB1 / Fold change vs veh, WDSUB1 / Fold change vs veh, HSP90B1 /// MIR3652 / RFU, ADSS / Fold change vs veh, ADSS / RFU, GK / Fold change vs veh, GK / RFU, ZNF148 / Fold change vs veh, ZNF148 / RFU, TAF9 / Fold change vs veh, TAF9 / RFU, SLC1A5 / Fold change vs veh, SLC1A5 / RFU, SLMO2 / Fold change vs veh, SLMO2 / RFU, ABCC4 / Fold change vs veh, ABCC4 / RFU, LOC101060439 /// RAP1B / Fold change vs veh, LOC101060439 /// RAP1B / RFU, RFX7 / Fold change vs veh, RFX7 / RFU, GTPBP10 / Fold change vs veh, GTPBP10 / RFU, CNEP1R1 / Fold change vs veh, CNEP1R1 / RFU, BIVM-ERCC5 /// ERCC5 / Fold change vs veh, BIVM-ERCC5 /// ERCC5 / RFU, ILF3 / Fold change vs veh, ILF3 / RFU 11762660_at / Fold change /veh 11762660_at / RFU VCAN (11757783_s_at) / Fold change /veh VCAN (11757783_s_at) / RFU DDX43 (11728927_at) / Fold change /veh DDX43 (11728927_at) / RFU KRT8 (11758188_x_at) / Fold change /veh KRT8 (11758188_x_at) / RFU NKD1 (11759106_at) / Fold change /veh NKD1 (11759106_at) / RFU SRD5A1 (11742802_a_at) / Fold change /veh SRD5A1 (11742802_a_at) / RFU TPSAB1 /// TPSB2 (11721975_s_at) / Fold change /veh TPSAB1 /// TPSB2 (11721975_s_at) / RFU GSTM3 (11746129_a_at) / Fold change /veh GSTM3 (11746129_a_at) / RFU IL23R (11737362_x_at) / Fold change /veh IL23R (11737362_x_at) / RFU TMEM51 (11727254_a_at) / Fold change /veh TMEM51 (11727254_a_at) / RFU PIWIL2 (11732686_x_at) / Fold change /veh PIWIL2 (11732686_x_at) / RFU ORM1 (11744905_x_at) / Fold change /veh ORM1 (11744905_x_at) / RFU CCDC152 (11743942_at) / Fold change /veh CCDC152 (11743942_at) / RFU ECM1 (11717891_a_at) / Fold change /veh ECM1 (11717891_a_at) / RFU IL23R (11748794_a_at) / Fold change /veh IL23R (11748794_a_at) / RFU TNFAIP8L3 (11732012_x_at) / Fold change /veh TNFAIP8L3 (11732012_x_at) / RFU MBOAT4 (11741988_at) / Fold change /veh MBOAT4 (11741988_at) / RFU 11764193_at / Fold change /veh 11764193_at / RFU TMEM53 (11763286_at) / Fold change /veh TMEM53 (11763286_at) / RFU MAGEB2 (11727129_at) / Fold change /veh MAGEB2 (11727129_at) / RFU TMEM200A (11744735_a_at) / Fold change /veh TMEM200A (11744735_a_at) / RFU CCDC152 (11751479_a_at) / Fold change /veh CCDC152 (11751479_a_at) / RFU FAM211A (11726209_a_at) / Fold change /veh FAM211A (11726209_a_at) / RFU RGS16 (11746705_a_at) / Fold change /veh RGS16 (11746705_a_at) / RFU VCAN (11755009_s_at) / Fold change /veh VCAN (11755009_s_at) / RFU RHOB (11743442_s_at) / Fold change /veh RHOB (11743442_s_at) / RFU RGS16 (11720943_a_at) / Fold change /veh RGS16 (11720943_a_at) / RFU RGS16 (11720944_at) / Fold change /veh RGS16 (11720944_at) / RFU, VPS4B / Fold change vs veh, VPS4B / RFU, CREB1 / Fold change vs veh, CREB1 / RFU, DNAJC13 / Fold change vs veh, DNAJC13 / RFU, GNAQ / Fold change vs veh, GNAQ / RFU, CDK5R1 / Fold change vs veh, CDK5R1 / RFU, ZRANB3 / Fold change vs veh, ZRANB3 / RFU, CUL4A / Fold change vs veh, CUL4A / RFU, CCNY / Fold change vs veh, CCNY / RFU, UFL1 / Fold change vs veh, UFL1 / RFU, COG3 / Fold change vs veh, COG3 / RFU, DIAPH2 / Fold change vs veh, DIAPH2 / RFU, SKA2 / Fold change vs veh, SKA2 / RFU, AFF3 / Fold change vs veh, AFF3 / RFU, LMF1 / Fold change vs veh, LMF1 / RFU, IPO11 / Fold change vs veh, IPO11 / RFU, DFFB / Fold change vs veh, DFFB / RFU, FOXP1 / Fold change vs veh, FOXP1 / RFU, CARD8 / Fold change vs veh, CARD8 / RFU, STRN3 / Fold change vs veh, STRN3 / RFU, ADK / Fold change vs veh, ADK / RFU, RASSF2 / Fold change vs veh, RASSF2 / RFU, WIPF1 / Fold change vs veh, WIPF1 / RFU, LARP1B / Fold change vs veh, LARP1B / RFU, RASA1 / Fold change vs veh, RASA1 / RFU, RB1 / Fold change vs veh, RB1 / RFU, PPFIA1 / Fold change vs veh, PPFIA1 / RFU, MAT2A / Fold change vs veh, MAT2A / RFU, CCT5 / Fold change vs veh, CCT5 / RFU, WDR92 / Fold change vs veh, WDR92 / RFU, CUX1 / Fold change vs veh, CUX1 / RFU, TTC7A / Fold change vs veh, TTC7A / RFU, TMEM135 / Fold change vs veh, TMEM135 / RFU, DEPTOR / Fold change vs veh, DEPTOR / RFU, CPM / Fold change vs veh, CPM / RFU, DNAJB6 / Fold change vs veh, DNAJB6 / RFU, CACNA2D3 / Fold change vs veh, CACNA2D3 / RFU, DTX4 / Fold change vs veh, DTX4 / RFU, TFCP2 / Fold change vs veh, TFCP2 / RFU, GMCL1 /// GMCL1P1 / Fold change vs veh, GMCL1 /// GMCL1P1 / RFU, AEBP2 / Fold change vs veh, AEBP2 / RFU, SNHG1 /// SNORD22 /// SNORD25 /// SNORD26 /// SNORD27 /// SNORD28 /// SNORD29 /// SNORD31 / Fold change vs veh, SNHG1 /// SNORD22 /// SNORD25 /// SNORD26 /// SNORD27 /// SNORD28 /// SNORD29 /// SNORD31 / Fold change (Aza/veh), C12orf56 (ProbeSet 11735607_a_at) / Fold change (ACY-1035/veh), C12orf56 (ProbeSet 11735607_a_at) / Fold change (Aza/veh), FGFR1OP (ProbeSet 11751329_s_at) / Fold change (ACY-1035/veh), FGFR1OP (ProbeSet 11751329_s_at) / Fold change (Aza/veh), VPS36 (ProbeSet 11739960_a_at) / Fold change (ACY-1035/veh), VPS36 (ProbeSet 11739960_a_at) / RFU SYPL1 (11715823_x_at) / Fold change /veh SYPL1 (11715823_x_at) / RFU IGFBP7 (11715501_s_at) / Fold change /veh IGFBP7 (11715501_s_at) / RFU REEP3 (11722064_at) / Fold change /veh REEP3 (11722064_at) / RFU IGLL1 (11728026_x_at) / Fold change /veh IGLL1 (11728026_x_at): dose or concentration left out as unconfirmed. As to conditions: MV-4-11 cells, 48 hours.

The structures appear in SMILES notation.

Take `Nc1ccc(-c2cccs2)cc1NC(=O)c1ccc2c(c1)cc(C1CC1)n2CCN1CCOCC1` [ACY-1035]: the “RFU LRRC4B (11730491_at)” value worked out at 28.30 RFU.

Source of the values: PMC5218480 (PLoS ONE, 2017).
